# Source: patent publication US6403607B1, “Sulfonamide derivatives and drugs containing the same as the active ingredient” (priority 1998, dated 2002)
# Read-outs that look alike come from different tables or passages of the source.
# Experiments:
# [1] = test system: ethanol ulcer in the gland gastric region; test: Ethanol ulcer; assay type: in vivo; conditions: rats fasted 24 hours, drug oral, 99.5% ethanol 1 ml/rat after one hour, size of ulcer one hour later; for Suppression: dose not given
# Procedure: Ethanol Ulcer Rats were fasted for 24 hours and orally administered with a drug. After one hour, 99.5% ethanol (1 ml/rat) was fed through oral administration. After one hour of ethanol administration, the abdomens of the rats were dissected and the size of ulcer in the gland gastric region was measured for each rat.
# [2] = test system: HCl-ethanol ulcer in the gland gastric region; test: HCl-ethanol ulcer; assay type: in vivo, Rats; conditions: rats fasted 24 hours, drug oral, 60% ethanol containing 0.15 N hydrochloric acid 1 ml/rat after one hour, size of ulcer one hour later; dose not given
# Procedure: HCl-ethanol Ulcer Rats were fasted for 24 hours and orally administered with a drug. After one hour, 60% ethanol containing 0.15 N hydrochloric acid (1 ml/rat) was perorally administered to each rat. One hour after ethanol administration, the size of ulcer in the gland gastric region was measured for evaluation of anti-ulcer effects of the drug.
# Helicobacter pylori = test: Anti-Helicobacter-pylori action (agar plate dilution MIC); assay type: cell-based; conditions: clinically isolated 10 bacterial strains, agar plate dilution method
# Procedure: Anti-Helicobacter-pylori Action
# Using clinically isolated 10 bacterial strains, the minimum inhibitory concentration (MIC) was measured according to the agar plate dilution method.
# rat red blood cell = test: Hemolytic action; assay type: cell-based; conditions: 10% rat red blood cell stock, 1% DMSO containing saline, 30 minutes at 37° C., absorbance 540 nm
# Procedure: Hemolytic Action […] After incubation for 30 minutes at, 37° C., the mixture was centrifugally separated and the supernatant was obtained. The absorbance (540 nm) of the supernatant was measured. The hemolysis ratio was calculated.
# H/K-ATPase = H/K-ATPase (Oryctolagus cuniculus, UniProt P27112); test: H/K-ATPase inhibition; assay type: biochemical; conditions: pH 7.4, H/K-ATPase from rabbit gastric mucous membrane
# Procedure: H/K-ATPase Inhibition The inhibitory effect was measured under pH 7.4, by using H/K-ATPase isolated and purified from the rabbit gastric mucous membrane.
# [3] = Helicobacter pylori, read-out: MIC
# H/K-ATPase, sequence (P27112 whole entry): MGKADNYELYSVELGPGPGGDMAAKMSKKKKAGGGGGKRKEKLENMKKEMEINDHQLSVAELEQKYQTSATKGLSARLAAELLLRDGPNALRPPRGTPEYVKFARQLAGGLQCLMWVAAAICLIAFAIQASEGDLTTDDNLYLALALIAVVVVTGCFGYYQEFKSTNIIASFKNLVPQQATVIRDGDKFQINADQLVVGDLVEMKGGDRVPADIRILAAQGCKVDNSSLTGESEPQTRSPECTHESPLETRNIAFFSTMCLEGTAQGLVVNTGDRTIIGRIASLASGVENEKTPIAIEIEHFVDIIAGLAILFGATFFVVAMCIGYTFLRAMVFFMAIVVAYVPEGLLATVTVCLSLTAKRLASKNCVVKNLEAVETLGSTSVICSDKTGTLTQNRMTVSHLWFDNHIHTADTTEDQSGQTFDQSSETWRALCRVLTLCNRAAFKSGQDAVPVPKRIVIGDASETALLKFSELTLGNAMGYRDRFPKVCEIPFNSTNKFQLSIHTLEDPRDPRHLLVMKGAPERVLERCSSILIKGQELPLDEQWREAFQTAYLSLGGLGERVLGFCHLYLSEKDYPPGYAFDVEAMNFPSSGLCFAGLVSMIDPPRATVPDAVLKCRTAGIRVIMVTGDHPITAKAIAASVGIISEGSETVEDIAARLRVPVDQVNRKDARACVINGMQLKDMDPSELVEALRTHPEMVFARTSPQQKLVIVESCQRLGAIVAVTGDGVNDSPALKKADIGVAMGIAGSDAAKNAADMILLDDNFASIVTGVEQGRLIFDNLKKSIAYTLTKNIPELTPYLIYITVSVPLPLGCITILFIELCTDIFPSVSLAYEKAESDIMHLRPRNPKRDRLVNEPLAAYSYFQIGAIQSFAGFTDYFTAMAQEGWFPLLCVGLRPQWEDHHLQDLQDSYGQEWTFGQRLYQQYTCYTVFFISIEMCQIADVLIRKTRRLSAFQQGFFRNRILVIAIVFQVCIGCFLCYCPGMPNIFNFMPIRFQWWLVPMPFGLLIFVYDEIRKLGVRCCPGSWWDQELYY
# H/K-ATPase, sequence (P18597 whole entry partner): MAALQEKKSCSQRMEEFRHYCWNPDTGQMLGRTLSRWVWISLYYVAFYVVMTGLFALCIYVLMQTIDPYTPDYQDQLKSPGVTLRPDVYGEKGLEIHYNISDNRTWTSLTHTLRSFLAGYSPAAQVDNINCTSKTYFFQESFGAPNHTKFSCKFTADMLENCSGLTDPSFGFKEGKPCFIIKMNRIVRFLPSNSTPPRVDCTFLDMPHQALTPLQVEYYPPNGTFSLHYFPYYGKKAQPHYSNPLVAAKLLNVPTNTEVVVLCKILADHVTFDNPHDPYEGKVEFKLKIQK
SMILES,Suppression [2],HC50 (rat red blood cell),IC50 (H/K-ATPase),other results
"CN(C)CCN(c1ccccc1NCCOc1ccc(Cl)cc1)S(=O)(=O)c1ccc(Cl)cc1.CN(C)CCN(c1ccccc1NCCOc1ccc(Cl)cc1)S(=O)(=O)c1ccc(Cl)cc1.O=C(O)C(O)C(O)C(=O)O [Example 3, N-(4-Chlorobenzenesulfonyl)-N-(2-dimethylaminoethyl)-N′-[2-(4-chlorophenoxy)ethyl]-o-phenylenediamine ½ Tartaric Acid Salt]",91%,72.3 µg/mL,,ED50 [1]: 14 mg/kg; Suppression [1]: 88%; MIC (Helicobacter pylori): 0.78 to 3.13 mg/L
"NCCOCCN(c1ccccc1NCCOc1ccc(Cl)cc1)S(=O)(=O)c1ccc(Cl)cc1.O=C(O)C(O)C(O)C(=O)O [Example 4, N-[2-(2-Aminoethoxy)ethyl]-N-(4-chlorobenzenesulfonyl)-N′-[2-(4-chlorophenoxy)ethyl]-o-phenylenediamine Tartaric Acid Salt]",,,7.4 µM,Suppression [1]: 85%; ED50 ([1]; read-out: ED50): 5.3 mg/kg; MIC (Helicobacter pylori; [3]): 25 to 50 mg/L
"CS(=O)(=O)N(CCOCCN)c1ccccc1NCCOc1ccc(Cl)cc1 [Example 22, N-[2-(2-Amino)ethoxyethyl]-N-(methanesulfonyl)-N′-[2-(4-chloro)phenoxyethyl]-o-phenylenediamine]",,55.7 µg/mL,190 µM,
"CCS(=O)(=O)N(CCOCCN)c1ccccc1NCCOc1ccc(Cl)cc1 [Example 23, N-[2-(2-Amino)ethoxyethyl]-N-(1-ethanesulfonyl)-N′-[2-(4-chlorophenoxy)ethyl]-o-phenylenediamine]",,,230 µM,Suppression [1]: 98%
"CCCS(=O)(=O)N(CCOCCN)c1ccccc1NCCOc1ccc(Cl)cc1 [Example 24, N-[2-(2-Amino)ethoxyethyl]-N-(1-propanesulfonyl)-N′-[2-(4-chlorophenoxy)ethyl]-o-phenylenediamine]",,99.6 µg/mL,130 µM,
"CCCCCS(=O)(=O)N(CCOCCN)c1ccccc1NCCOc1ccc(Cl)cc1 [Example 27, N-[2-(2-Amino)ethoxyethyl]-N-(1-pentanesulfonyl)-N′-[2-(4-chlorophenoxy)ethyl]-o-phenylenediamine]",,,38 µM,
"CCCCCCS(=O)(=O)N(CCOCCN)c1ccccc1NCCOc1ccc(Cl)cc1 [Example 28, N-[2-(2-Amino)ethoxyethyl]-N-(1-hexanesulfonyl)-N′-[2-(4-chlorophenoxy)ethyl]-o-phenylenediamine]",,,79 µM,Suppression [1]: 100%
"CCCCCCCS(=O)(=O)N(CCOCCN)c1ccccc1NCCOc1ccc(Cl)cc1 [Example 29, N-[2-(2-Amino)ethoxyethyl]-N-(1-heptanesulfonyl)-N′-[2-(4-chlorophenoxy)ethyl]-o-phenylenediamine]",,,5 µM,
"CCS(=O)(=O)N(CCN(C)C)c1ccccc1NCCOc1ccc(Cl)cc1.Cl [Example 30, N-[2-(Dimethylamino)ethyl]-N-ethanesulfonyl-N′-[2-(4-chlorophenoxy)ethyl]-o-phenylenediamine Hydrochloride]",,>100 µg/mL,,
"CCCCCCS(=O)(=O)N(CCN(C)C)c1ccccc1NCCOc1ccc(Cl)cc1.Cl [Example 32, N-[2-(Dimethylamino)ethyl]-N-(1-hexanesulfonyl)-N′-[2-(4-chlorophenoxy)ethyl]-o-phenylenediamine Hydrochloride]",88%,>100 µg/mL,,
"COc1ccc(S(=O)(=O)N(CCN(C)C)c2ccccc2NCCOc2ccc(Cl)cc2)cc1.Cl [Example 40, N-[2-(Dimethylamino)ethyl]-N-(4-methoxybenzenesulfonyl)-N′-[2-(4-chlorophenoxy)ethyl]-o-phenylenediamine Hydrochloride]",88%,>100 µg/mL,,
"CN(C)CCN(c1ccccc1NCCOc1ccc(Cl)cc1)S(=O)(=O)c1ccc(F)cc1.Cl [Example 42, N-[2-(Dimethylamino)ethyl]-N-(4-fluorobenzenesulfonyl)-N′-[2-(4-chlorophenoxy)ethyl]-o-phenylenediamine Hydrochloride]",91%,>100 µg/mL,,
"CN(C)CCN(c1ccccc1NCCOc1ccccc1)S(=O)(=O)c1ccc(Cl)cc1.Cl [Example 50, N-[2-(Dimethylamino)ethyl]-N-(4-chlorobenzenesulfonyl)-N′-(2-phenoxyethyl)-o-phenylenediamine Hydrochloride]",81%,>100 µg/mL,,
"CN(C)CCN(c1ccccc1NCCOc1ccc(Cl)cc1)S(=O)(=O)c1ccccc1Cl.Cl [Example 51, N-[2-(Dimethylamino)ethyl]-N-(2-chlorobenzenesulfonyl)-N′-[2-(4-chlorophenoxy)ethyl]-o-phenylenediamine Hydrochloride]",83%,84.6 µg/mL,,
"CN(C)CCN(c1cccc(NCCOc2ccc(Cl)cc2)c1)S(=O)(=O)c1ccc(Cl)cc1.Cl [Example 55, N-[2-(Dimethylamino)ethyl]-N-(4-chlorobenzenesulfonyl)-N′-[2-(4-chlorophenoxy)ethyl]-m-phenylenediamine Hydrochloride]",88%,,,
"CN(C)CCN(c1ccc(NCCOc2ccc(Cl)cc2)cc1)S(=O)(=O)c1ccccc1Cl.Cl [Example 56, N-[2-(Dimethylamino)ethyl]-N-(2-chlorobenzenesulfonyl)-N′-[2-(4-chlorophenoxy)ethyl]-p-phenylenediamine Hydrochloride]",88%,,,
"CN(C)CCN(c1ccccc1NCCOc1ccc(Cl)cc1)S(=O)(=O)c1cccc2cnccc12.Cl [Example 57, N-[2-(Dimethylamino)ethyl]-N-(5-isoquinolinesulfonyl)-N′-[2-(4-chlorophenoxy)ethyl]-o-phenylenediamine Hydrochloride]",,>100 µg/mL,,
"CN(C)CCN(c1ccccc1NCCOc1cccc(Cl)c1)S(=O)(=O)c1ccc(Cl)cc1.Cl [Example 58, N-[2-(Dimethylamino)ethyl]-N-(4-chlorobenzenesulfonyl)-N′-[2-(3-chlorophenoxy)ethyl]-o-phenylenediamine Hydrochloride]",88%,71.2 µg/mL,,
CN(C)CCN(c1ccccc1N(C)CCOc1ccc(Cl)cc1)S(=O)(=O)c1ccc(Cl)cc1.Cl [Example 69],99%,,,
"CN(C)CCN(c1ccccc1N(CCOc1ccc(Cl)cc1)Cc1ccccc1)S(=O)(=O)c1ccc(Cl)cc1.Cl [Example 71, N-[2-(Dimethylamino)ethyl]-N-(4-chlorobenzenesulfonyl)-N′-benzyl-N′-[2-(4-chlorophenoxy)ethyl]-o-phenylenediamine Hydrochloride]",99%,,,
"NCCN(c1cccnc1NCCNc1ccc(Cl)cc1)S(=O)(=O)c1ccc(Cl)cc1 [Example 86, 3-[N-(4-Chlorobenzenesulfonyl)-N-(2-aminoethyl)]amino-2-[2-(4-chlorophenyl)aminoethyl]aminopyridine]",,,1.1 µM,Suppression [1]: 79%
"CN(C)CCN(c1ccccc1N1CCOCC1)S(=O)(=O)c1ccc(Cl)cc1.Cl [Example 128, 2-(4-Morpholino)-1-[N-[2-(dimethylamino)ethyl]-N-(4-chlorobenzenesulfonyl)]aminobenzene Hydrochloride Salt]",,>100 µg/mL,,
"CN(C)CCN(c1ccccc1N1CCNCC1)S(=O)(=O)c1ccc(Cl)cc1.Cl [Example 129, 2-(1-Piperazino)-1-[N-[2-(dimethylamino)ethyl]-N-(4-chlorobenzenesulfonyl)]aminobenzene Hydrochloride Salt]",,>100 µg/mL,,
"CN(C)CCN(c1ccccc1N1CCN(c2ccc(Cl)cc2)CC1)S(=O)(=O)c1ccc(Cl)cc1 [Example 132, 2-[4-(4-Chlorophenyl)-1-piperazino]-1-[N-[2-(dimethylamino)ethyl]-N-(4-chlorobenzenesulfonyl)]aminobenzene]",88%,,,MIC (Helicobacter pylori): 3.13 to 12.5 mg/L
"CN(C)CCN(c1ccccc1N1CCCN(c2ccc(Cl)cc2)CC1)S(=O)(=O)c1ccc(Cl)cc1.Cl [Example 135, 2-[4-(4-Chlorophenyl)-1-homopiperazino]-1-[N-[2-(dimethylamino)ethyl]-N-(4-chlorobenzenesulfonyl)]aminobenzene.HCl]",89%,,,
"CN(C)CCN(c1ccccc1Sc1ccc(Cl)cc1)S(=O)(=O)c1ccc(Cl)cc1.Cl [Example 142, 2-(4-Chlorophenylthio)-N-(4-chlorobenzenesulfonyl)-N-(2-dimethylaminoethyl)aniline.HCl]",98%,,,
"NCCOCCN(c1ccccc1Oc1ccc(Cl)cc1)S(=O)(=O)c1ccc(Cl)cc1 [Example 144, 1-[N-[2-(2-Aminoethoxy)ethyl]-N-(4-chlorobenzenesulfonyl)]-2-(4-chlorophenoxy)aniline]",,,11.4 µM,MIC (Helicobacter pylori; [3]): 25 to 50 mg/L
"CN(C)CCN(c1ccccc1Oc1ccc(Cl)cc1)S(=O)(=O)c1ccc(Cl)cc1.Cl [Example 145, 1-[N-[2-(Dimethylamino)ethyl]-N-(4-chlorobenzenesulfonyl)]-2-(4-chlorophenoxy)aniline.HCl]",,>100 µg/mL,,
